In paper PMC8703108, “Identifying of Anti-Thrombin Active Components From Curcumae Rhizoma by Affinity-Ultrafiltration Coupled With UPLC-Q-Exactive Orbitrap/MS” (Frontiers in Pharmacology, 2021):

The compounds below were run against T1, thrombin (THR, FIIα) (Homo sapiens, UniProt P00734) (assay: chromogenic substrate S-2238 assay; affinity ultrafiltration LC-MS hit).
T1 construct: gene F2; human recombinant THR
Assay type: biochemical

In order of rising IC50:
1. CC(=O)OC(CCc1ccc(O)cc1)CC(O)CCc1ccc(O)cc1 (stereo not drawn) [C8, 3-acetate-1,7-bis(4-hydroxyphenyl)-3,5-heptanediol]  9.92 µM
2. CC(=O)OC(CCc1ccc(O)c(O)c1)CC(CCc1ccc(O)c(O)c1)OC(C)=O (stereo not drawn) [C7, 4,4′-[3,5-bis(acetyloxy)-1,7-heptanediyl]bis-1,2-benzenediol]  358 µM
3. CC(=O)OC(CCc1ccc(O)cc1)CC(CCc1ccc(O)c(O)c1)OC(C)=O (stereo not drawn) [C11, 4-[3,5-bis(acetyloxy)-7-(4-hydroxyphenyl)heptyl]-1,2-benzenediol]  654 µM
